Results as given in patent publication US7425640B2, “Substituted 5-carboxyamide pyrazoles and [1,2,4]triazoles as antiviral agents” (priority 2004, dated 2008).

These compounds were tested against HCV RNA-dependent RNA polymerase NS5B (Δ21) (Hepatitis C virus genotype 1b, UniProt P26663) (assay: Assay for HCV RNA-dependent RNA polymerase activity (SPA, [3H]-GTP incorporation)). Details: read-out: Δ21 Activity (IC50 μM); 50 nM NS5B (Δ21), class symbols.
Type: biochemical
Procedure, shortened: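 NS5B (Δ21), 50 nM, was incubated 3 h at room temperature with biotinylated oligoG12/polyC template, 5 μM GTP plus [3H]-GTP, in HEPES pH 7.3 with MgCl2 and NaCl. [3H]-GTP incorporation was read by streptavidin SPA. IC50 came from single experiments across 11 two-fold dilutions (0.05–50 μM).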

HCV RNA-dependent RNA polymerase NS5B (Δ21), sequence (P26663 2420-2989, stated change not applied): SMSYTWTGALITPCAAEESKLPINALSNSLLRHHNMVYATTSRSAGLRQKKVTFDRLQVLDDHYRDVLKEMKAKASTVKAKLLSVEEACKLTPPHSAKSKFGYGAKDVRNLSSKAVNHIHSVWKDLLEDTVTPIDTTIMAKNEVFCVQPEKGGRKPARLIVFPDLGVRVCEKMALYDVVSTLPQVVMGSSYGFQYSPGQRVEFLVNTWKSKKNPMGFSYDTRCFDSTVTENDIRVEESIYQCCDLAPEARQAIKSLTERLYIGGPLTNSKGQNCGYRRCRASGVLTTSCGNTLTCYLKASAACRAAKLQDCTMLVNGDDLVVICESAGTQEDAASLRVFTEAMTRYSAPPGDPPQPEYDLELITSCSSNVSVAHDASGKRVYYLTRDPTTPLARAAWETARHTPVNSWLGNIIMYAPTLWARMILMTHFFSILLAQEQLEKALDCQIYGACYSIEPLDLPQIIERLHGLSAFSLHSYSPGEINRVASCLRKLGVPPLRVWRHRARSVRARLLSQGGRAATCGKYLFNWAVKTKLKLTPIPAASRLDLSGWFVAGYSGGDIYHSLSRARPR

Row | Structure (SMILES) | IC50
1 | O=C(Cn1nc(NC(=O)C(F)(F)F)cc1C(=O)N[C@H]1CCCC[C@@H]1OCc1ccccc1)N[C@H]1CCCC[C@@H]1OCc1ccccc1 [Compound 75] | 0.1 to 1 µM
2 | O=C(Cn1nc(NS(=O)(=O)c2cc(Cl)ccc2Cl)cc1C(=O)N[C@H]1CCCC[C@@H]1OCc1ccccc1)N[C@H]1CCCC[C@@H]1OCc1ccccc1 [Compound 96] | 0.1 to 1 µM
3 | CCCCNC(=O)c1cc(C(=O)N[C@H]2CCCC[C@@H]2OCc2ccccc2)n(CC(=O)N[C@H]2CCCC[C@@H]2OCc2ccccc2)n1 [Compound 110] | 0.1 to 1 µM
4 | O=C(Cn1nc(NC(=O)NCc2ccccc2)cc1C(=O)N[C@H]1CCCC[C@@H]1OCc1ccccc1)N[C@H]1CCCC[C@@H]1OCc1ccccc1 [Compound 121] | 0.1 to 1 µM
5 | C=CCNC(=O)c1cc(C(=O)N[C@H]2CCCC[C@@H]2OCc2ccccc2)n(CC(=O)N[C@H]2CCCC[C@@H]2OCc2ccccc2)n1 [Compound 111] | 0.1 to 1 µM
6 | O=C(Cn1nc(C(=O)NCCc2ccc(Cl)cc2)cc1C(=O)N[C@H]1CCCC[C@@H]1OCc1ccccc1)N[C@H]1CCCC[C@@H]1OCc1ccccc1 [Compound 129] | 0.1 to 1 µM
7 | CC(NC(=O)c1cc(C(=O)N[C@H]2CCCC[C@@H]2OCc2ccccc2)n(CC(=O)N[C@H]2CCCC[C@@H]2OCc2ccccc2)n1)c1ccccc1 (some centres unmarked) [Compound 95] | 0.1 to 1 µM
8 | O=C(Cn1nc(C(=O)NCc2ccc(Cl)cc2Cl)cc1C(=O)N[C@H]1CCCC[C@@H]1OCc1ccccc1)N[C@H]1CCCC[C@@H]1OCc1ccccc1 [Compound 148] | 0.1 to 1 µM
9 | CCOC(=O)c1cc(C(=O)N[C@H]2CCCC[C@@H]2OCc2ccccc2)n(CC(=O)N[C@H]2CCCC[C@@H]2OCc2ccccc2)n1 [Compound 49] | 0.1 to 1 µM
10 | CC(C)(C)ONC(=O)c1cc(C(=O)N[C@H]2CCCC[C@@H]2OCc2ccccc2)n(CC(=O)N[C@H]2CCCC[C@@H]2OCc2ccccc2)n1 [Compound 116] | 0.1 to 1 µM
11 | COC(=O)CCCCCNC(=O)c1cc(C(=O)N[C@H]2CCCC[C@@H]2OCc2ccccc2)n(CC(=O)N[C@H]2CCCC[C@@H]2OCc2ccccc2)n1 [Compound 149] | 0.1 to 1 µM
12 | O=C(Cn1nc(C(=O)NC2CCCC2)cc1C(=O)N[C@H]1CCCC[C@@H]1OCc1ccccc1)N[C@H]1CCCC[C@@H]1OCc1ccccc1 [Compound 128] | 0.1 to 1 µM
13 | O=C(O)c1cc(C(=O)N[C@H]2CCCC[C@@H]2OCc2ccccc2)n(CS(=O)(=O)N[C@H]2CCCC[C@@H]2OCc2ccccc2)n1 [Compound 57] | 0.1 to 1 µM
14 | O=C(Cn1nccc1C(=O)N[C@H]1CCCC[C@@H]1OCc1ccccc1)N[C@H]1CCCC[C@@H]1OCc1ccccc1 [Compound 134] | 0.1 to 1 µM
15 | CCCONC(=O)c1cc(C(=O)N[C@H]2CCCC[C@@H]2OCc2ccccc2)n(CC(=O)N[C@H]2CCCC[C@@H]2OCc2ccccc2)n1 [Compound 164] | 0.1 to 1 µM
16 | C[C@@H](NC(=O)c1cc(C(=O)NC2CCCCC2OCc2ccccc2)n(CC(=O)N[C@H]2CCCC[C@@H]2OCc2ccccc2)n1)c1cccc2ccccc12 (some centres unmarked) [Compound 74] | 0.1 to 1 µM
17 | Cc1ccc(S(=O)(=O)Nc2cc(C(=O)N[C@H]3CCCC[C@@H]3OCc3ccccc3)n(CC(=O)N[C@H]3CCCC[C@@H]3OCc3ccccc3)n2)cc1 [Compound 106] | 0.1 to 1 µM

Same assay, conditions: Δ21 Activity (IC50 μM), 50 nM NS5B (Δ21), class symbols

Row | Structure (SMILES) | IC50
18 | O=Cc1cc(C(=O)N[C@H]2CCCC[C@@H]2OCc2ccccc2)n(CC(=O)N[C@H]2CCCC[C@@H]2OCc2ccccc2)n1 [Compound 189] | > 1 µM
19 | CCOC(=O)c1cc(C(=O)N[C@H]2CCCC[C@@H]2OCc2ccccc2)n(CC(=O)NC2CCCC[C@@H]2NCc2ccccc2)n1 (some centres unmarked) [Compound 199] | > 1 µM
20 | CCOC(=O)c1cc(C(=O)Nc2cc(C)ccc2OCn2nc(C)cc2C)n(CC(=O)N[C@H]2CCCC[C@@H]2OCc2ccccc2)n1 [Compound 202] | > 1 µM
21 | CC(C)(C)OC(=O)Nc1cc(C(=O)N[C@H]2CCCC[C@@H]2OCc2ccccc2)n(CC(=O)N[C@H]2CCCC[C@@H]2OCc2ccccc2)n1 [Compound 172] | > 1 µM
22 | CC(C)(O)c1cc(C(=O)N[C@H]2CCCC[C@@H]2OCc2ccccc2)n(CC(=O)N[C@H]2CCCC[C@@H]2OCc2ccccc2)n1 [Compound 190] | > 1 µM
23 | O=C(Cn1nc(C(=O)O)cc1C(=O)Nc1cc(Br)ccc1OCC1CCCCC1)N[C@H]1CCCC[C@@H]1OCc1ccccc1 [Compound 12] | < 0.05 µM
24 | COc1ccc(CNC(=O)c2cc(C(=O)N[C@H]3CCCC[C@@H]3OCc3ccccc3)n(CC(=O)N[C@H]3CCCC[C@@H]3OCc3ccccc3)n2)c(OC)c1 [Compound 28] | 0.05 to 0.1 µM
25 | CCOC(=O)c1cc(C(=O)N[C@H]2CCCC[C@@H]2OCc2ccccc2)n(CC(=O)Nc2ccc3c(c2)OCO3)n1 [Compound 193] | > 1 µM
26 | CCOC(=O)c1cc(C(=O)N[C@H]2CCCC[C@@H]2OCc2ccccc2)n(CC(=O)N(C)[C@H]2CCCC[C@@H]2OCc2ccccc2)n1 [Compound 178] | > 1 µM
27 | COc1ccc(S(=O)(=O)Nc2cc(C(=O)N[C@H]3CCCC[C@@H]3OCc3ccccc3)n(CC(=O)N[C@H]3CCCC[C@@H]3OCc3ccccc3)n2)cc1 [Compound 41] | 0.05 to 0.1 µM
28 | O=C(Cn1nc(NS(=O)(=O)c2ccccc2Br)cc1C(=O)N[C@H]1CCCC[C@@H]1OCc1ccccc1)N[C@H]1CCCC[C@@H]1OCc1ccccc1 [Compound 32] | 0.05 to 0.1 µM
29 | Cc1ccc(OCc2ccccc2)c(NC(=O)c2nc(C(=O)O)nn2CC(=O)N[C@H]2CCCC[C@@H]2OCc2ccccc2)c1 [Compound 24] | 0.05 to 0.1 µM

Same assay, conditions: Δ21 Activity (IC50 μM), 50 nM NS5B (Δ21), numeric values

Row | Structure (SMILES) | IC50
30 | N#CNC(=O)c1cc(C(=O)N[C@H]2CCCC[C@@H]2OCc2ccccc2)n(CC(=O)N[C@H]2CCCC[C@@H]2OCc2ccccc2)n1 [drawing 254] | 0.042 µM
31 | C[C@@H](NC(=O)c1cc(C(=O)N[C@H]2CCCC[C@@H]2OCc2ccccc2)n(CC(=O)N[C@H]2CCCC[C@@H]2OCc2ccccc2)n1)c1cccc2ccccc12 [drawing 246] | 0.15 µM
32 | N#CNC(=O)c1cc(C(=O)Nc2ccccc2OCc2ccccc2)n(CC(=O)N[C@H]2CCCC[C@@H]2OCc2ccccc2)n1 [drawing 245] | 0.024 µM
33 | Cc1ccc(OCC2CCCC2)c(NC(=O)c2cc(C(=O)O)nn2CC(=O)N[C@H]2CCCC[C@@H]2OCc2ccccc2)c1 [drawing 241] | 0.023 µM
34 | O=C(Cn1nc(NS(=O)(=O)c2ccc(O)c(C(=O)O)c2)cc1C(=O)N[C@H]1CCCC[C@@H]1OCc1ccccc1)N[C@H]1CCCC[C@@H]1OCc1ccccc1 | 0.074 µM
35 | Cc1ccc(OCC2CCCCC2)c(NC(=O)c2cc(C(=O)NC#N)nn2CC(=O)N[C@H]2CCCC[C@@H]2OCc2ccccc2)c1 [drawing 243] | 0.037 µM
